Source: patent US5736565A, “Therapeutic compounds suitable for the treatment of diseases connected with glutathione deficiency, process for their preparation, and pharmaceutical compositions containing same” (Prospa B.V., priority 1992, dated 1998)
Several values for one entry are separate records, joined by “and”; a condition that tells them apart may be missing. Equal values may be shown once.

Experiments:
[1] = tested on: hepatic GSH; assay: Test No. 1: protection from ethanol acute administration, hepatic GSH content; assay type: in vivo, male albino Wistar rats; design: GSH Content: unit not given beside the values; conditions: liver; ethanol 3 g/kg i.p.; test substance 50 mg/kg
Description: Protection from ethanol acute administration […] Male albino Wistar rats weighing between 180 and 230 g were used. All animals were fasted for 24 hours prior to administration of isotonic solution, ethanol or ethanol combined with the test substances. As concerns the test substances, rats were intraperitoneally (i.p.) injected with compound of formula I (R=CH3) at doses of 10, 30, and 50 mg/kg and, for purposes of comparison, with the single constituents of compound (I) (R=CH3), […] (O-PRO) and L-cysteine (CIS), both at a 50 mg/kg dose. One hour after administration of the test substance, ethanol was injected i.p. at the dose of 3 g/kg. Thirty minutes later, the animals were sacrificed by decapitation and their liver was excised. […] Orwar et al., J. Chromatrogr., 556, 39-55 (1991).

[2] = tested on: hepatic GSH; assay: Test No. 4: dichloropropane (DCP) intoxication in vivo, hepatic GSH; design: species or system rat; conditions: for normalization of hepatic GSH (in words): DCP-treated rats
Description: (§1) A test was carried out in vivo on four groups of four rats each, using, as a toxic substance, dichloropropane (DCP), the main constituent of several solvents. DCP is noxious both by ingestion and inhalation and has a notable toxicity to the liver, mediated by an almost total depletion of thiol groups, including those of GSH.
(§2) The experimental model involves the study of the effect of DCP toxicity in the rat, in respect of glutathione (GSH) concentration in the main target tissue: the liver.
(§3) Tests were carried out on four groups of rats. The first group of animals was administered 2 ml DCP/kg dissolved in oil (40% v/v) per os. Twenty-four hours after DCP administration, blood samples were taken for SGPT measurement, while the animals were sacrificed; small portions of liver were then excised and immediately deproteinized by homogenization in 6% PCA. The chromatographic analyses of GSH and GSSG (oxidized glutathione) were performed.
(§4) The second group of animals was treated with the test drug (600 mg/kg i.p.) two hours after DCP administration. The third and fourth groups were treated with N-acetyl-cysteine (NAC) (250 mg/kg i.p.) and, respectively, with glutathione (Tationil^R) (600 mg/kg i.p.).
An evaluation of the protective action of the test drug in respect of glutathione involvement in hepatic protection mechanisms was thus possible.

[3] = tested on: DCP toxicity in the rat; assay: Test No. 4: dichloropropane (DCP) intoxication in vivo, death rate and signs; design: key to animal 4, symbol in GSH table: --: dead; conditions: DCP + 250 mg/kg i.p.
Description: as §1, §2, §3, §4

N[C@@H](CS)C(=O)O [CIS, L-cysteine, reference compound] was tested. Which “GSH Content” value [1] did it give?
Its value is 2.7 ± 0.3.

N[C@@H](CCC(=O)N[C@@H](CS)C(=O)NCC(=O)O)C(=O)O [GSH, glutathione] was tested. Which “GSH Content” value [1] did it give?
Its value is 3.5 ± 0.6.

And the “normalization of hepatic GSH (in words)” value [2]?
The value was “could not normalize the values of hepatic GSH”.

With CC(=O)N[C@@H](CS)C(=O)O [NAC, N-acetyl-L-cysteine, reference compound] as the compound, how does the “normalization of hepatic GSH (in words)” value [2] read?
The value was “could not normalize the values of hepatic GSH”.

And the “GSH, average values” ([2]; liver, DCP 2 ml/kg per os + 250 mg/kg i.p.)?
The value was 2.4 nmol/mg protein.

And the “GSH, individual animals” value ([2]; liver, DCP 2 ml/kg per os + 250 mg/kg i.p., animals 1-3, 250 mg/kg)?
Its value is 2.0 nmol/mg protein and 2.9 nmol/mg protein and 2.3 nmol/mg protein.

What about the “animal 4, symbol in GSH table” value [3] of the same compound?
Its value is “--”.

O=C1CC[C@@H](C(=O)O)N1 [O-PRO, 5-oxy-L-proline, reference compound] was tested. Which “GSH Content” value [1] did it give?
The value was 3.4 ± 0.3.
